Legend:
[1] = system: Lewis lung carcinoma; assay: Lewis lung carcinoma metastatic model in C57BL/6 mice; assay type: in vivo; settings: for Activity: weight gain of lung: 100 mg/kg/day, treatment from day three, vehicle 0.40 g
Description: (§1) Antitumor activity has been evaluated for the S(−) and the R(+)4-amino-thalidomide enantiomers as follows. For the HsS cell line, 2 million cells are injected into the tail vein of 8 week old, female, SCID mice. Treatment is initiated after two weeks and continued daily until the mice die or show hind limb paralysis. Results are expressed as mean time to death in treated versus control animals. For the Lewis lung model, 2.5×10(5) cells are injected intravenously into the tail vein of 6-8 week old, male, C57BL/6 mice and treatment is initiated on day three. The time period of treatment is usually 11-15 days in duration. After sacrifice by CO^2 asphyxiation, lungs (where tumors seed and grow) are removed, rinsed in water, patted dry, and weighed. Mean lung weights of age-matched, non-tumor bearing mice are subtracted from the weight of treated, tumor-bearing mice with results expressed as lung weight gain in treated versus control animals. Table 1 summarizes data from in vivo experiments in lung and plasma cell tumor metastatic tumor systems, comparing the antitumor activity of the three enantiomeric preparations of 4-amino thalidomide.

[2] = system: HsSultan B-cell lymphoma; assay: HsSultan B-cell lymphoma metastatic model in SCID mice; assay type: in vivo; settings: for Activity: mean time to death: daily from two weeks after i.v. cell injection, vehicle 26 days
Description: as §1

[3] = system: HS-Sultan cells; assay: XTT proliferation assay with HS-Sultan cells; assay type: cell-based; settings: 72 hour treatment, FIG. 1
From the text: The Roche Cell Proliferation Kit II (XTT) is an useful assay for screening the relative efficacy of small molecules. The assay quantitatively determines cellular proliferation in response to agonists and/or antagonists of proliferation. It is based on the cleavage of the yellow tetrazolium salt (XTT) by metabolically active/viable cells to form an orange formazan dye. The formation of the soluble dye allows direct quantification using a scanning mulitwell spectrophotometer. An increase in the number of living cells (resulting from proliferation) results in a greater production of formazan dye which corresponds to an increase in the absorbance value.
When evaluating analogs of thalidomide, or the like, we have employed HS-Sultan cells in an in vitro XTT assay. […] When the treatment/labeling period is complete, the plate is read on a spectrophotometric plate reader at a wavelength of 470 nm and a 650 nm reference wavelength. For individual experiments, the average absorbance values (with background subtracted) for each treatment are plotted against the concentration. A larger absorbance value corresponds to a greater amount of proliferation. A negative control (untreated cells) is used as a point of reference; an absorbance value less than the control reflects inhibition of proliferation. […]

[4] = system: VEGF induced neovascularization; assay: Corneal micropocket assay, VEGF pellet; assay type: in vivo, C57BL/6J mice; settings: 50 mg/kg i.p. daily for six days, n=9 each, P<0.001, FIG. 2
Description: (§2) A corneal micropocket assay was performed as described in Kenyon, et al., A Model of Angiogenesis in the Mouse Cornea, Invest. Ophtalmol. & Vis. Sci., 37, 1625-1632 (1996), which is incorporated herein in its entirety. Pellets were used containing 80 ng of bFGF or human recombinat VEGF (R&D Systems, Minneapolis, Minn.) in C57BL/6J mice. […] Differences in VEGF induced neovascularization between S(−)-3APG and control were significant (n=9 each, P<0.001), as were differences between S(−)-3APG and thalidomide (n=9 each, P<0.01).

[5] = system: bFGF induced neovascularization; assay: Corneal micropocket assay, bFGF pellet; assay type: in vivo, C57BL/6J mice; settings: 50 mg/kg i.p. daily for five days, n=9 each, P<0.0001, FIG. 2
Description: as §2

Row | Compound | Activity: weight gain of lung [1] [g] | Activity: mean time to death ([2]; 50 mg/kg/day) [days] | Activity: mean time to death ([2]; 200 mg/kg/day) [days] | anti-cellular proliferation activity (XTT, treatment over control) [3] | antitumor activity compared among the enantiomeric preparations of 4-amino thalidomide ([1]; summary of Table 1) | difference in VEGF induced neovascularization versus control [4] | antitumor activity compared among the enantiomeric preparations of 4-amino thalidomide ([2]; summary of Table 1) | difference in bFGF induced neovascularization versus control [5]
1 | Nc1cccc2c1C(=O)N(C1CCC(=O)NC1=O)C2=O (stereo not drawn) [R, S, 4-amino-thalidomide] | 0.27 | 41 | 28 |  |  |  |  | 
2 | Nc1cccc2c1C(=O)N([C@H]1CCC(=O)NC1=O)C2=O [S(−)-4-amino-thalidomide, S(−)-4-Amino-thalidomide] | 0.17 | 47 | 47 | show anti-cellular proliferation activity | most active enantiomer | significant | most active enantiomer | significant
3 | Nc1cccc2c1C(=O)N([C@@H]1CCC(=O)NC1=O)C2=O [R(+)-4-amino-thalidomide] | 0.42 | 37 | 31 | show anti-cellular proliferation activity |  |  |  | 

Source: patent US8153806B2, “Synthesis of 4-amino-thalidomide enantiomers” (The Children's Medical Center Corporation, priority 2000, dated 2012)
